# Assay results published in patent publication US20240374746A1, “SIRP-ALPHA ANTIBODIES AND CONJUGATES” (Tallac Therapeutics, Inc., priority 2021, published 2024).
# What was measured:
# dendritic cells [1] = experiment: Dendritic cell activation (CD40) in cynomolgus PBMCs; format: cell-based; details: 48 hours
# Method: Cynomolgus whole blood was received from BioIVT and diluted 1:3 with Phosphate Buffered Saline (PBS, Gibco). Diluted blood was underplayed with 15 mL 90% Ficoll-Paque (GE Healthcare) in PBS solution. Tubes were centrifuged for 30 minutes at 400×g with break off. Cells were collected from the interface, resuspended and washed in FACS buffer (PBS with 0.5% Bovine Serum Albumin (Gibco)). After one wash, cells were resuspended in ACK lysis buffer (Gibco) for 15 min at room temperature, washed in FACs buffer and centrifuged before repeating. Purified PBMCs were resuspended in Complete RPMI (RPMI, 10% FBS, 1× Pen/Strep, 1× Glutamax). PBMCs were immediately plated onto a 96-well format (0.3e6/well) in Complete RPMI. Three-fold serial dilutions were added to the cells from 1 μM to 1.4 nM of CpG oligonucleotide and 300 nM to 0.4 nM of anti-SIRP-α antibody (heavy chain comprising the sequence of SEQ ID NO:66 and light chain comprising the sequence of SEQ ID NO:75) and the corresponding antibody:CpG conjugate (heavy chain comprising the sequence of SEQ ID NO: 66 and light chain comprising the sequence of SEQ ID NO:75, conjugated to CpG oligo 7-7 (SEQ ID NO:35)) at 37° C. under 5% CO2 for 48 hours. […] Cells were analyzed on Attune NxT Flow Cytometer (Thermo Fisher), with subsequent data analysis by Flowjo 10.7 (Treestar). […] Levels of activation marker were assessed by median fluorescent intensity.
# dendritic cells [2] = experiment: Dendritic cell activation (CD40) in human PBMCs; format: cell-based; details: 24 hours
# Method: Trima residuals were received from Vitalant and diluted 1:3 with Phosphate Buffered Saline (PBS, Gibco). Diluted blood was underplayed with 15 mL Ficoll-Paque (GE Healthcare). Tubes were centrifuged for 30 minutes at 400×g with break off. PBMCs were collected from the interface, resuspended and washed in FACS buffer (PBS with 0.5% Bovine Serum Albumin (Gibco)). After one wash, PBMCs were resuspended in Complete RPMI (RPMI, 10% FBS, 1× Pen/Strep, 1× Glutamax). PBMCs were immediately plated onto a 96-well format (1e6/well) in Complete RPMI. Three-fold serial dilutions were added to the cells from 300 nM to 0.4 nM for anti-SIRP-α antibody (heavy chain comprising the sequence of SEQ ID NO:66 and light chain comprising the sequence of SEQ ID NO:75) and anti-SIRP-α conjugate (heavy chain comprising the sequence of SEQ ID NO:66 and a light chain comprising the sequence of SEQ ID NO:75, conjugated to CpG oligo 7-7 (SEQ ID NO:35)). Free CpG 7-7 (SEQ ID NO:35) was titrated from 3 μM to 4.12 nM. Cells were incubated at 37° C. under 5% CO2 for 24 hours. […] Cells were analyzed on Attune NxT Flow Cytometer (Thermo Fisher), with subsequent data analysis by Flowjo 10.7 (Treestar). […] Levels of activation marker were assessed by median fluorescent intensity.
# [3] = tested on: THP-1-Dual hTLR9 cell line, interferon regulatory factor (IRF) pathway; experiment: THP-1-Dual hTLR9 reporter assay, IRF pathway (secreted Lucia luciferase); format: cell-based; details: 24 hours; F(ab′)2 anti-human IgG Fcγ cross-linking agent; read-out: EC50 of IRF induction
# Method: THP-1-Dual hTLR9 cell line (thpd-nfis, Invivogen) was derived from human THP-1 monocytes engineered to overexpress the human TLR9 (hTLR9) gene and featuring two reporter genes allowing for simultaneous assessment of the NF-kB pathway by monitoring the activity of an inducible secreted embryonic alkaline phosphatase (SEAP), and the interferon regulatory factor (IRF) pathway by monitoring the activity of an inducible secreted Lucia luciferase. Briefly, 250,000 cells in 100 uL of growth media (RPMI 1640 (Gibco), 2 mM L-glutamine (Gibco), 25 mM HEPES (Gibco), 10% FBS (Gibco), 100 U/mL penicillin (Gibco), 100 ug/mL streptomycin (Gibco), 100 ug/mL Normacin (Invivogen) were plated in 96-well flat-bottom plates (Nunc). An 8 step 2-fold serial dilution of anti-SIRP-α antibody or anti-SIRP-α antibody conjugate was added to cells in 50 μL for a final concentration range of 200 nM-1.56 nM. 10 μg/mL of a F(ab′)2 fragment goat anti-human, IgG Fcγ fragment specific (Jackson Immuno Research) was added in 50 μL of growth media as a cross-linking agent. Cells were incubated at 37 C for 24 hours. NF-kB and IRF induction from supernatant was detected according to manufacturer's protocol. EC50 values were derived using three-parameter […] regression curve fir in Prism 9 (GraphPad), and data were presented as fold-over media control. […]
# [4] = tested on: PBMC cells from three different donor lines (D559, D804 and D643); experiment: CpG activity on PBMCs from different donors (CD40 expression); format: cell-based, human; details: PBMCs of donors D559, D804 and D643; compared with 12070
# Method: Trima residuals were received from Vitalant and diluted 1:2 with Phosphate Buffered Saline (PBS, Gibco). Diluted blood was split into two tubes and underplayed with 15 mL Ficoll-Paque (GE Healthcare). Tubes were centrifuged for 30 minutes at 400×g. PBMCs were collected from the interface, resuspended and washed in FACS buffer (PBS with 0.5% Bovine Serum Albumin (Gibco)). After one wash, PBMCs were resuspended in Complete RPMI (RPMI+10% FBS).
# PBMCs were immediately plated onto a 96-well format (500K/well) in Complete RPMI. Five-fold serial dilutions were added to the cells from 1 uM to 64 pM of CpG oligonucleotides at 37° C. under 5% CO2 for 48 hours. Cells were pelleted by centrifugation for five minutes at 400×g and stained at 4° C. in Fixable Viability Dye eFluor 780 (Thermo Fisher) diluted 1:4000 in PBS. Cells were centrifuged and stained at 4° C. in FACS buffer for 30 minutes containing FcR Blocking Reagent (Miltenyi Biotec), anti-CD19, anti-CD20, anti-CD40, anti-HLADR and anti-CD80. Cells were centrifuged and washed twice in FACS buffer and fixed in 0.5% paraformaldehyde. Cells were analyzed on Attune NxT Flow Cytometer (Thermo Fisher), with subsequent data analysis by Flowjo 10.7 (Treestar). Dead cells were excluded by gating on the eFluor 780-negative population. B cells were identified as CD19+CD20+ cells and level of activation marker was assessed by median fluorescent intensity. […]
# [5] = tested on: CD14+ monocytes and dendritic cells; experiment: CD40 activation in myeloid cells by unconjugated CpG oligonucleotides; format: cell-based; details: human myeloid cells; 40 nM, 48 hours; compared to the 12070 CpG oligonucleotide
# Method: Trima residuals were received from Vitalant and diluted 1:3 with Phosphate Buffered Saline (PBS, Gibco). Diluted blood was underplayed with 15 mL Ficoll-Paque (GE Healthcare). Tubes were centrifuged for 30 minutes at 400×g with break off. PBMCs were collected from the interface, resuspended and washed in FACS buffer (PBS with 0.5% Bovine Serum Albumin (Gibco)). After one wash, PBMCs were resuspended in Complete RPMI (RPMI+10% FBS). PBMCs were immediately plated onto a 96-well format (1e6/well) in Complete RPMI. CpG oligonucleotides were incubated with the cells at 40 nM concentration at 37° C. under 5% CO2 for 48 hours. Cells were pelleted by centrifugation for five minutes at 400×g and stained at 4° C. in Fixable Viability Dye eFluor 780 (Thermo Fisher) diluted 1:5000 in PBS. Cells were centrifuged and stained at 4° C. in FACS buffer for 60 minutes containing FcR Blocking Reagent (Miltenyi Biotec), anti-CD14, anti-CD11c, anti-CD3, anti-CD19, anti-CD56, anti-CD16, anti-HLADR, anti-CD40, and anti-CD86 (Thermo Fisher, Biolegend). Cells were centrifuged and washed twice in FACS buffer and fixed in 0.5% paraformaldehyde. Cells were analyzed on Attune NxT Flow Cytometer (Thermo Fisher), with subsequent data analysis by Flowjo 10.7 (Treestar). Dead cells were excluded by gating on the eFluor 780-negative population. […] Levels of activation marker were assessed by median fluorescent intensity.
# [6] = tested on: Ramos-Blue Cells NF-kB/AP-1 Reporter B lymphocytes; experiment: Ramos NFkb Reporter Assay; format: cell-based, human; details: 1 uM to 64 pM CpG, 24 h; compared to 12070 and ODN2006
# Method: For Ramos NFkb Reporter Assay, Ramos-Blue Cells NF-kB/AP-1 Reporter B lymphocytes were purchased from Invivogen. Cells were grown and maintained in complete DMEM supplemented with 2 mM L-glutamine, 10% FBS, 100 ug/mL Normacin, Pen-Strep, 100 ug/mL Zeocin. Stimulation of the Ramos-Blue cells was performed. Briefly, cells were rinsed in growth medium without antibiotics. Cells were counted and resuspended in fresh complete DMEM without selection antibiotics at a density of 2×10^6 cell/mL. 20 uL of 10 uM CpG 7-7, CpG 12070 and ODN2006 titrated 1:5 were added to a flat-bottom 96-well plate, 180 uL of the cell suspension were added to a final concentration of 1 uM to 64 pM of CpG. Plate was incubated at 37° C. in a 5% CO2 incubator for 24 h. On day of assay, QB reagent and QB buffer were thawed before us. Quanti-Blue solution was prepared by adding 1 mL of QB reagent and […] QB buffer to 98 mL of sterile water in a sterile glass bottle. 180 μL of Quanti-Blue solution was dispensed per well into a new flat-bottom 96-well plate. 20 μL of supernatant from treated Ramos-Blue cells was then added to the 96-well plate. Plate was ten incubated for 6 h. Optical density was measured at OD655 using a plate reader (Molecular Devices), and data was tabulated in GraphPad Prism 9.0.
substance,measurement,setting,value
CpG 7-7 (DNA TCGTCGTGTCGTTT; modified_base 1 OTHER; 5-Bromo-2'-deoxyuridine; modified_base 13..14 OTHER; 2'-O-Methyl-Thymidine; modified_base 1..4 OTHER; phosphorothioate linkages; misc_feature 4^5 phosphotriester linker-PEG24-NH2; modified_base 5..9 OTHER; modified_base 9^10 OTHER; phosphorodithioate linkage; modified_base 10..14 OTHER; misc_feature 14 3' spacer C3),surface marker expression (CD40) on dendritic cells,dendritic cells [1],potent TLR9 agonist with targeted dendritic cell activation across species
same,surface marker expression (CD40) on dendritic cells,dendritic cells [2],potent TLR9 agonist with targeted dendritic cell activation across species
same,EC50,[3],84 nM
same,activity as observed by CD40 expression,[4],higher activities
same,activation of CD40,[5],higher activation of CD40
same,activity in NFkb reporter assay,[6],significantly higher activity
